In US4087548A, “Complement inhibitors” (American Cyanamid Company, priority 1976, dated 1978):
Structures can show the parent of a compound that is named as a salt.

What was measured:
guinea pigs = experiment: Forssman Shock Test; type: in vivo, guinea pig; conditions: control = 3.15 minutes
Source text: (§1) This test measures the ability of activated human C1 to destroy fluid phase human C2 in the presence of C4 and appropriate dilutions of the test compound. An active inhibitor protects C2 from C1 and C4; (ii) Test, Code 035 (C3-C9 inhibitor) -- This test determines the ability of the late components of human complement (C3-C9) to lyse EAC 142 in the presence of appropriate dilutions of the test compound. An active inhibitor protects EAC 142 from lysis by human C3-C9; (iii) Test, Code 036 (C-Shunt inhibitor) -- In this test human erythrocytes rendered fragile are lysed in autologous serum via the shunt pathway activated by cobra venom factor in the presence of appropriate dilutions of the test compound. Inhibition of the shunt pathway results in failure of lysis; (iv) Forssman Vasculitis Test -- Here, the well known complement dependent lesion, Forssman vasculitis, is produced in guinea pigs by intradermal injection of rabbit anti-Forssman antiserum. The lesion is measured in terms of diameter, edema and hemorrhage and the extent to which a combined index of these is inhibited by prior intraperitoneal injection of the test compound at 200 mg/kg is then reported, unless otherwise stated; (v) Forssman Shock Test -- Lethal shock is produced in guinea pigs by an i.v. injection of anti-Forssman antiserum and the harmonic mean death time of treated guinea pigs is compared with that of simultaneous controls; (vi) Complement Level Reduction Test -- In this test, the above dosed guinea pigs, or others, are bled for serum and the complement level is determined in undiluted serum by the capillary tube method of U.S. Pat. No. 3,876,376 and compared to undosed control guinea pigs; and (vii) Cap 50 Test -- Here, appropriate amounts of the test compound are added to a pool of guinea pig serum in vitro, after which the undiluted serum capillary tube assay referred to above is run. The concentration of compound inhibiting 50% is reported.
***Harmonic mean death time in minutes. (control = 3.15 minutes).

[1] = system: late components of human complement (C3-C9); experiment: Test, Code 035 (C3-C9 inhibitor), lysis of EAC 142; type: cell-based; conditions: serial two-fold dilutions assay; higher well number indicates higher activity
Method: as §1, with “An active inhibitor protects EAC 142 from lysis by human C3-C9; (iii) Test, Code 036 (C-Shunt inhibitor) -- In this test human erythrocytes rendered fragile are lysed in autologous serum via the shunt pathway activated by cobra venom factor in the presence of appropriate dilutions of the test compound. Inhibition of the shunt pathway results in failure of lysis; (iv) Forssman Vasculitis Test -- Here, the well known complement dependent lesion, Forssman vasculitis, is produced in guinea pigs by intradermal injection of rabbit anti-Forssman antiserum.” left out, “The concentration of compound inhibiting 50% is reported.” left out

[2] = system: shunt pathway activated by cobra venom factor; experiment: Test, Code 036 (C-Shunt inhibitor), lysis of human erythrocytes in autologous serum; type: cell-based; conditions: serial two-fold dilutions assay; higher well number indicates higher activity
Source text: as §1
(§2) **Numbers represent activity in wells, a serial dilutions assay, higher
(§3) well number indicates higher activity. The serial dilutions are two-fold.

activated human C1 = biological target: T1, activated human C1 (Homo sapiens, UniProt P09871); experiment: Test, Code 026 (C1 inhibitor); type: biochemical; conditions: serial two-fold dilutions assay; higher well number indicates higher activity
T1 construct: C1s cleaved into disulfide-linked heavy and light chains; fluid-phase C2 consumption with C4
Source text: as §1, §2, §3

T1 sequence (P09871 16-688): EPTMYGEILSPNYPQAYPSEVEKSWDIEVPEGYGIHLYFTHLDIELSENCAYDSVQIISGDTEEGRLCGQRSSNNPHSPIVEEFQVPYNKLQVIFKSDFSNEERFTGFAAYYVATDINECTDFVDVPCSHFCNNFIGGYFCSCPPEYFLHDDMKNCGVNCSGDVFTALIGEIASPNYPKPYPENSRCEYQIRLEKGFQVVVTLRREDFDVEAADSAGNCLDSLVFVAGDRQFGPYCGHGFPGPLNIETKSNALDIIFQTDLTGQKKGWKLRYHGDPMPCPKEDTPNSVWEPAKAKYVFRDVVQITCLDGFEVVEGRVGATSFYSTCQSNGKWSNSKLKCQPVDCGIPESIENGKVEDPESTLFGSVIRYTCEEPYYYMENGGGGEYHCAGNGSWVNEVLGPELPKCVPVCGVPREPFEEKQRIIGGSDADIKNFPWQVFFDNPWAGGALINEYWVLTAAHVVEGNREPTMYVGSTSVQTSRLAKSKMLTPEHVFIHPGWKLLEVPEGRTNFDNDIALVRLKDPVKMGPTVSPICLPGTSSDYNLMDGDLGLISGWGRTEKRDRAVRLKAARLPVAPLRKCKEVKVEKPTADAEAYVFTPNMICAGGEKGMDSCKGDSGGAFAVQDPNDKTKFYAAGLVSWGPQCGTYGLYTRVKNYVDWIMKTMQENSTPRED
T1 sequence (P00736 18-705 partner): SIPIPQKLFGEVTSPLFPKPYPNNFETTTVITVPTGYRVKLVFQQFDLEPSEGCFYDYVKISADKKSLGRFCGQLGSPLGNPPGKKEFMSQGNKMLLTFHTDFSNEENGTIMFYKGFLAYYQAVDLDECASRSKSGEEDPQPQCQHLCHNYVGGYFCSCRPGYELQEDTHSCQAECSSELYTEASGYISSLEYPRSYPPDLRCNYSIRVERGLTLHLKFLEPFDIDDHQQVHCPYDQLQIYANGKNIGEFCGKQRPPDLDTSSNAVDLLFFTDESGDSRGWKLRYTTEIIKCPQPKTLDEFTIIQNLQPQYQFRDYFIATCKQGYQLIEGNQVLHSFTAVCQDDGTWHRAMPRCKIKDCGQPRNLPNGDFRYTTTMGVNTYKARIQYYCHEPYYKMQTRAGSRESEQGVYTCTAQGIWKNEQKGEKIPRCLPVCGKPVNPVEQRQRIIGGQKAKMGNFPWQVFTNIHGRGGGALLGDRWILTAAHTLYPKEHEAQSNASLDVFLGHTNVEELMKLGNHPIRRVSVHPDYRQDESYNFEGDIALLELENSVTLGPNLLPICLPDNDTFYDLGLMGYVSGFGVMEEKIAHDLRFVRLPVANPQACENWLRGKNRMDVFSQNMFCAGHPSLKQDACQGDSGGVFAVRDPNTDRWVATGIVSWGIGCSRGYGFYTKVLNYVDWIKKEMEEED
T1 sequence (P02745 23-245 partner): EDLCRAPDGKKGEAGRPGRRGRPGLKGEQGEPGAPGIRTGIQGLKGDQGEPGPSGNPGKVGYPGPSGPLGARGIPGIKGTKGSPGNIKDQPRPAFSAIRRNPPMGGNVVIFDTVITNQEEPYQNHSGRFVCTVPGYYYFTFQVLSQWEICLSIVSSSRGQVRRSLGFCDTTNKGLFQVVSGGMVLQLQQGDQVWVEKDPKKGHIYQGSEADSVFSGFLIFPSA
T1 sequence (P02746 28-253 partner): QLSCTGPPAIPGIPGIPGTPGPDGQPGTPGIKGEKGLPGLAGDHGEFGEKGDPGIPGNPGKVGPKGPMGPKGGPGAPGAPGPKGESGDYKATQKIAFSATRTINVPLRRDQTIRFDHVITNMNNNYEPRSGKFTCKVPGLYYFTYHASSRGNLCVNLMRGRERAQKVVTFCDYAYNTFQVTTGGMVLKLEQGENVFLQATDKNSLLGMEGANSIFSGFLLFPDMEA
T1 sequence (P02747 29-245 partner): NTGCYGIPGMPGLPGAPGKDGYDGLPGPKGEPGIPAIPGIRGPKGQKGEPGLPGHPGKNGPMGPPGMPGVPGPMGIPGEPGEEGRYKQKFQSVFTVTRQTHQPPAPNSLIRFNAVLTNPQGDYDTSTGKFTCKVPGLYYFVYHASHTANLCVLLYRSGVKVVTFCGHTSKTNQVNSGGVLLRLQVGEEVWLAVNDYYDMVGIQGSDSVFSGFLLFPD

Structure (SMILES)	Forssman Shock, harmonic mean death time (guinea pigs; route not given) [min]	Code 026 (activity in wells) (activated human C1)	also measured
O=C(Nc1cccc(C(=O)Nc2cc3c(S(=O)(=O)[O-])cc(S(=O)(=O)[O-])cc3cc2S(=O)(=O)[O-])c1)Nc1cccc(C(=O)Nc2cc3c(S(=O)(=O)[O-])cc(S(=O)(=O)[O-])cc3cc2S(=O)(=O)[O-])c1.[Na+].[Na+].[Na+].[Na+].[Na+].[Na+] [7,7'-[Ureylenebis(m-phenylenecarbonylimino)]di-1,3,6-naphthalenetrisulfonic acid, hexasodium salt]	14		Code 035 (activity in wells) [1]: +1 wells; Code 036 (activity in wells) [2]: +1 wells
Nc1cccc(C(=O)Nc2cc3c(S(=O)(=O)[O-])cc(S(=O)(=O)[O-])cc3cc2S(=O)(=O)[O-])c1.[Na+].[Na+].[Na+] [7-(m-Aminobenzamido)-1,3,6-naphthalenetrisulfonic acid, trisodium salt]	33		
O=C(Nc1cc2c(S(=O)(=O)[O-])cc(S(=O)(=O)[O-])cc2cc1S(=O)(=O)[O-])c1cccc([N+](=O)[O-])c1.[Na+].[Na+].[Na+] [7-m-Nitrobenzamido-1,3,6-naphthalenetrisulfonic acid, trisodium salt]	20		
Cc1ccc(C(=O)Nc2cc(S(=O)(=O)O)cc3cc(S(=O)(=O)O)cc(S(=O)(=O)O)c23)cc1NC(=O)Nc1cc(C(=O)Nc2cc(S(=O)(=O)O)cc3cc(S(=O)(=O)O)cc(S(=O)(=O)O)c23)ccc1C [8,8'-[Ureylenebis(4-methyl-m-phenylenecarbonylimino)]di-1,3,6-naphthalenetrisulfonic acid, hexasodium salt]			Forssman Shock, harmonic mean death time (guinea pigs; i.p.): 28 min; Forssman Shock, harmonic mean death time (guinea pigs; i.v.): 46 min
Cc1ccc(NC(=O)Nc2ccc(C)c(C(=O)Nc3cc(S(=O)(=O)O)cc4cc(S(=O)(=O)O)cc(S(=O)(=O)O)c34)c2)cc1C(=O)Nc1cc(S(=O)(=O)O)cc2cc(S(=O)(=O)O)cc(S(=O)(=O)O)c12 [8,8'-[Ureylenebis(6-methyl-m-phenylenecarbonylimino)]di-1,3,6-naphthalenetrisulfonic acid, hexasodium salt]	11	+5 wells	Code 035 (activity in wells) [1]: +4 wells
O=C(Nc1cccc(C(=O)Nc2cc(S(=O)(=O)[O-])cc3cc(S(=O)(=O)[O-])cc(S(=O)(=O)[O-])c23)c1)Nc1cccc(C(=O)Nc2cc(S(=O)(=O)[O-])cc3cc(S(=O)(=O)[O-])cc(S(=O)(=O)[O-])c23)c1.[Na+].[Na+].[Na+].[Na+].[Na+].[Na+] [8,8'-[Ureylenebis(m-phenylenecarbonylimino)]di-1,3,6-naphthalenetrisulfonicacid, hexasodium salt]		+6 wells	Code 036 (activity in wells) [2]: +1 wells
O=C(Nc1ccc(C(=O)Nc2cc(S(=O)(=O)[O-])cc3cc(S(=O)(=O)[O-])cc(S(=O)(=O)[O-])c23)cc1)Nc1ccc(C(=O)Nc2cc(S(=O)(=O)[O-])cc3cc(S(=O)(=O)[O-])cc(S(=O)(=O)[O-])c23)cc1.[Na+].[Na+].[Na+].[Na+].[Na+].[Na+] [8,8'-[Ureylenebis(p-phenylenecarbonylimino)]di-1,3,6-naphthalenetrisulfonicacid, hexasodium salt]		+4 wells	
Cc1ccc(C(=O)Nc2cc(S(=O)(=O)O)cc3cc(S(=O)(=O)O)cc(S(=O)(=O)O)c23)cc1NC(=O)C(=O)Nc1cc(C(=O)Nc2cc(S(=O)(=O)O)cc3cc(S(=O)(=O)O)cc(S(=O)(=O)O)c23)ccc1C [8,8'-{Oxalylbis {{[imino(4-methyl-1,3-phenylene)]carbonyl}imino}}di-1,3,6-naphthalenetrisulfonic acid, hexasodium salt]		+4 wells	Code 036 (activity in wells) [2]: +3 wells
Cc1ccc(NC(=O)Nc2cc(S(=O)(=O)O)cc3cc(S(=O)(=O)O)cc(S(=O)(=O)O)c23)cc1NC(=O)Nc1cc(NC(=O)Nc2cc(S(=O)(=O)O)cc3cc(S(=O)(=O)O)cc(S(=O)(=O)O)c23)ccc1C [8,8'-{Ureylenebis[(4-methyl-m-phenylene)ureylene]}di-1,3,6-naphthalenetrisulfonic acid, hexasodium salt]		+4 wells	Code 036 (activity in wells) [2]: +1 wells
Cc1ccc(C(=O)Nc2cc(S(=O)(=O)O)cc3cc(S(=O)(=O)O)cc(S(=O)(=O)O)c23)cc1N [8-(3-Amino-p-toluamido)-1,3,6-naphthalenetrisulfonic acid, trisodium salt]	14	+3 wells	
Cc1ccc(C(=O)Nc2cc(S(=O)(=O)O)cc3cc(S(=O)(=O)O)cc(S(=O)(=O)O)c23)cc1[N+](=O)[O-] [8-(3-Nitro-p-toluamido)-1,3,6-naphthalenetrisulfonic acid, trisodium salt]	25	+2 wells	
Cc1cc(C(=O)Nc2cc(S(=O)(=O)O)cc3cc(S(=O)(=O)O)cc(S(=O)(=O)O)c23)ccc1N [8-(4-Amino-m-toluamido)-1,3,6-naphthalenetrisulfonic acid, trisodium salt]	14	+3 wells	
Cc1cc(C(=O)Nc2cc(S(=O)(=O)O)cc3cc(S(=O)(=O)O)cc(S(=O)(=O)O)c23)ccc1[N+](=O)[O-] [8-(4-Nitro-m-toluamido)-1,3,6-naphthalenetrisulfonic acid, trisodium salt]	46	+1 wells	
Cc1ccc(N)cc1C(=O)Nc1cc(S(=O)(=O)O)cc2cc(S(=O)(=O)O)cc(S(=O)(=O)O)c12 [8-(5-Amino-o-toluamido)-1,3,6-naphthalenetrisulfonic acid, trisodium salt]	14		
Nc1ccc(C(=O)Nc2cc(S(=O)(=O)[O-])cc3cc(S(=O)(=O)[O-])cc(S(=O)(=O)[O-])c23)cc1.[Na+].[Na+].[Na+] [8-(p-Aminobenzamido)-1,3,6-naphthalenetrisulfonic acid, trisodium salt]	10	+3 wells	
Nc1cccc(C(=O)Nc2cccc(C(=O)Nc3cc(S(=O)(=O)[O-])cc4cc(S(=O)(=O)[O-])cc(S(=O)(=O)[O-])c34)c2)c1.[Na+].[Na+].[Na+] [8-[m-(m-Aminobenzamido)benzamido]-1,3,6-naphthalene-trisulfonic acid, trisodium salt]		+2 wells	
O=C(Nc1cc(S(=O)(=O)[O-])cc2cc(S(=O)(=O)[O-])cc(S(=O)(=O)[O-])c12)c1ccc([N+](=O)[O-])cc1.[Na+].[Na+].[Na+] [8-p-Nitrobenzamido-1,3,6-naphthalenetrisulfonic acid, trisodium salt]	13	+1 wells	
Cc1ccc(NC(=O)Nc2cccc(C(=O)Nc3cc(S(=O)(=O)[O-])cc4cc(S(=O)(=O)[O-])cc(S(=O)(=O)[O-])c34)c2)cc1[N+](=O)[O-].[Na+].[Na+].[Na+] [8-{m-[3-(3-Nitro-p-tolyl)ureido]benzamido}-1,3,6-naphthalenetrisulfonic acid, trisodium salt]	32	+2 wells	
